Earlier results in patent US20160101114A1, “ARTICLES AND METHODS FOR PREVENTING AND TREATING DERMATOLOGIC ADVERSE EVENTS” (SLOAN-KETTERING INSTITUTE FOR CANCER RESEARCH, priority 2013, published 2016).

settings: cancer therapies with multikinase inhibitors

Row | Molecule | all grade incidence of hand foot syndrome [%]
1 | CNC(=O)c1ccccc1Sc1ccc2c(/C=C/c3ccccn3)n[nH]c2c1 [axitinib] | 29
2 | COc1cc2nccc(Oc3ccc(NC(=O)C4(C(=O)Nc5ccc(F)cc5)CC4)cc3)c2cc1OC [cabozantinib] | 50
3 | Cc1ccc(Nc2nccc(N(C)c3ccc4c(C)n(C)nc4c3)n2)cc1S(N)(=O)=O [pazopanib] | 5
4 | CNC(=O)c1cc(Oc2ccc(NC(=O)Nc3ccc(Cl)c(C(F)(F)F)c3)c(F)c2)ccn1 [regorafenib] | 46
5 | CNC(=O)c1cc(Oc2ccc(NC(=O)Nc3ccc(Cl)c(C(F)(F)F)c3)cc2)ccn1 [sorafenib] | 60
6 | CCN(CC)CCNC(=O)c1c(C)[nH]c(/C=C2\C(=O)Nc3ccc(F)cc32)c1C [sunitinib] | 30
7 | COc1cc2c(Nc3ccc(Br)cc3F)ncnc2cc1OCC1CCN(C)CC1 [vandetanib] | 5
8 | ziv-aflibercept | 2
